Test: xn = mol fraction of the nth substance listed

CC(C)NC(C)C + CCCCCCCCO
viscosity [mPa·s], 101 kPa
Settings	298.15 K	303.15 K	308.15 K
x1 = 0.0552	6.422	5.366	4.483
x1 = 0.1034	5.774	4.866	4.045
x1 = 0.1579	5.107	4.286	3.62
x1 = 0.2037	4.51	3.87	3.235
x1 = 0.2551	3.898	3.326	2.826
x1 = 0.3074	3.339	2.871	2.455
x1 = 0.4058	2.441	2.128	1.84
x1 = 0.5058	1.758	1.535	1.352
x1 = 0.606	1.265	1.143	1.046
x1 = 0.7025	0.916	0.84	0.76
x1 = 0.8044	0.664	0.616	0.58
x1 = 0.8545	0.571	0.537	0.502
x1 = 0.8931	0.509	0.487	0.452
x1 = 0.9418	0.442	0.431	0.401

CCC(=O)c1ccccc1 + CNC(C)=O
308.15 K, 101 kPa
Settings	viscosity [mPa·s]
x1 = 0.06	2.972
x1 = 0.1269	2.778
x1 = 0.1862	2.61
x1 = 0.2778	2.38
x1 = 0.3654	2.19
x1 = 0.4649	2.005
x1 = 0.5709	1.828
x1 = 0.6929	1.648
x1 = 0.8315	1.485

NCc1ccccc1 + O
viscosity [mPa·s]
Settings	293.15 K	303.15 K	313.15 K	323.15 K
100 kPa, x1 = 0.1	–	2.231	1.725	1.385
100 kPa, x1 = 0.2	–	3.098	2.324	1.793
100 kPa, x1 = 0.3	–	3.387	2.512	1.956
100 kPa, x1 = 0.4	–	3.323	2.51	1.93
100 kPa, x1 = 0.5	–	3.1	2.353	1.831
100 kPa, x1 = 0.6	–	2.669	2.064	1.648
100 kPa, x1 = 0.7	–	2.308	1.823	1.469
100 kPa, x1 = 0.8	–	1.957	1.591	1.309
100 kPa, x1 = 0.9	–	1.681	1.396	1.182
101 kPa, x1 = 0.1003	3.23	2.28	1.7	1.38
101 kPa, x1 = 0.2001	4.4	3.07	2.25	1.78
101 kPa, x1 = 0.3	4.8	3.37	2.48	1.93
101 kPa, x1 = 0.3997	4.63	3.3	2.46	1.91
101 kPa, x1 = 0.5002	4.16	3.05	2.28	1.79
101 kPa, x1 = 0.6	3.57	2.67	2.03	1.63
101 kPa, x1 = 0.7	2.95	2.28	1.78	1.47
101 kPa, x1 = 0.7999	2.48	1.94	1.55	1.3
101 kPa, x1 = 0.9	2.1	1.68	1.36	1.15
